Here are results for 25 compounds from patent EP3928779A1 (Chugai Seiyaku Kabushiki Kaisha, priority 2014, dated 2016).

The experiment deals with rat small-intestinal brush border membrane vesicles. Nature of the experiment: Inhibitory effect on 33PO4 uptake into rat small-intestinal brush border membrane vesicles (rapid filtration method). Type of experiment: biochemical. The note with it: 33PO4 uptake into rat small-intestinal BBMVs; test compound 1 µM; reacted for 60 seconds. The gist of the method: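 Uptake of ^33PO4 was measured by rapid filtration and liquid scintillation counting of filter-retained vesicles, after quenching with ice-cold 110 mM NaCl/1 mM KH2PO4/10 mM HEPES pH 7.5. Vesicles were brush border membranes from the upper small intestine of female Wistar rats aged 4–5 weeks.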
`CN1N(Cc2ccc(OCCOCCNCC(O)CO)c(F)c2F)C(=O)C(C(=O)Nc2ccc(C(F)(F)F)cc2-c2cc(C(F)(F)F)ncn2)=C(O)C12CCCC2` (stereo not shown) [Example 419, 7-[[4-[2-[2-(2,3-Dihydroxypropylamino)ethoxy]ethoxy]-2,3-difluorophenyl]methyl]-10-hydroxy-6-methyl-8-oxo-N-[4-(trifluoromethyl)-2-[6-(trifluoromethyl)pyrimidin-4-yl]phenyl]-6,7-diazaspiro[4.5]dec-9-ene-9-carboxamide]: the “Rate of uptake inhibition (%) (1 µM)” value stood at 22%.
`CN1N(Cc2ccc(OCCOCCOCCOCCC(=O)NCC(O)CO)c(F)c2F)C(=O)C(C(=O)Nc2ccc(C(F)(F)F)cc2-c2cc(C(F)(F)F)ncn2)=C(O)C12CCCC2` (stereo not shown) [Example 424]: the “Rate of uptake inhibition (%) (1 µM)” value is 17%.
Turning to `C[C@]12CCCN1N(Cc1ccc(Br)cc1F)C(=O)C(C(=O)Nc1cc(F)c(Br)c(F)c1)=C2O` [Example 166, (4aR)-N-(4-Bromo-3,5-difluorophenyl)-1-[(4-bromo-2-fluorophenyl)methyl]-4-hydroxy-4a-methyl-2-oxo-6,7-dihydro-5H-pyrrolo[1,2-b]pyridazine-3-carboxamide], the “Rate of uptake inhibition (%) (1 µM)” value stood at 73%.
Next, `CCOc1cccc(-c2cc(C(F)(F)F)ccc2NC(=O)C2=C(O)[C@@]3(C)CCCN3N(Cc3cccc(F)c3F)C2=O)c1OC` [Example 66]: 96%; `CSc1ccc(-c2cc(C(F)(F)F)ccc2NC(=O)C2=C(O)C3(CCCC3)N(C)N(Cc3ccc(OCCN4CCOCC4)c(F)c3F)C2=O)cn1` [Example 289]: 55%.
For the compound `CN(C)CC(C)(C)COc1ccc(CN2C(=O)C(C(=O)Nc3ccc(C(F)(F)F)cc3-c3cc(C(F)(F)F)ncn3)=C(O)C3(CCCC3)N2C)c(F)c1F` [Example 414, 7-(4-(3-(Dimethylamino)-2,2-dimethylpropoxy)-2,3-difluorobenzyl)-10-hydroxy-6-methyl-8-oxo-N-(4-(trifluoromethyl)-2-(6-(trifluoromethyl)pyrimidin-4-yl)phenyl)-6,7-diazaspiro[4.5]dec-9-ene-9-carboxamide], the “Rate of uptake inhibition (%) (1 µM)” value stood at 27%.
Turning to `CSc1ccc(-c2cc(C(F)(F)F)ccc2NC(=O)C2=C(O)[C@@]3(C)CCCN3N(Cc3ccc(OCCCCOC[C@H](O)CO)c(F)c3F)C2=O)cn1` [Example 120, (4aR)-1-[[4-[4-[(2R)-2,3-Dihydroxypropoxy]butoxy]-2,3-difluorophenyl]methyl]-4-hydroxy-4a-methyl-N-[2-(6-methylsulfanylpyridin-3-yl)-4-(trifluoromethyl)phenyl]-2-oxo-6,7-dihydro-5H-pyrrolo[1,2-b]pyridazine-3-carboxamide], the “Rate of uptake inhibition (%) (1 µM)” value amounted to 66%.
Regarding `CN1[C@@H](C(C)(C)C)C(O)=C(C(=O)Nc2cccc(C(F)(F)F)n2)C(=O)N1Cc1cccc(F)c1F` [Example 244], the “Rate of uptake inhibition (%) (1 µM)” value worked out at 71%.
Turning to `CN1N(Cc2ccc(OCCCCOC[C@H](O)CO)c(F)c2F)C(=O)C(C(=O)Nc2ccc(C(F)(F)F)cc2-c2ccc(C(F)(F)F)nc2)=C(O)C12CCC2` [Example 384], the “Rate of uptake inhibition (%) (1 µM)” value turned out to be 39%.
Turning to `C[C@]12CCCN1N(Cc1ccc(CCCCCCC(=O)O)c(F)c1F)C(=O)C(C(=O)Nc1ccc(Cl)cc1-c1ccc(C(F)(F)F)nc1)=C2O` [Example 116, 7-[4-[[(4aR)-3-[[4-Chloro-2-[6-(trifluoromethyl)pyridin-3-yl]phenyl]carbarnoyl]-4-hydroxy-4a-methyl-2-oxo-6,7-dihydro-5H-pyrrolo[1,2-b]pyridazin-1-yl]methyl]-2,3-difluorophenyl]heptanoate], the “Rate of uptake inhibition (%) (1 µM)” value was determined as 72%.
In the case of `CSC1CN(CCOc2ccc(CN3C(=O)C(C(=O)Nc4ccc(C(F)(F)F)cc4-c4cc(C(F)(F)F)ncn4)=C(O)C4(CCC4)N3C)c(F)c2F)C1` [Example 357], the “Rate of uptake inhibition (%) (1 µM)” value was 45%.
Next, `COCCCN(C)C(=O)c1cc(CN2C(=O)C(C(=O)Nc3ccc(C(F)(F)F)cc3-c3cc(C(F)(F)F)ncn3)=C(O)C3(CCCC3)N2C)c(F)c(F)c1OCCN(C)CCOC` [Example 438, 7-[[2,3-Difluoro-4-[2-[2-methoxyethyl(methyl)amino]ethoxy]-5-[3-methoxypropyl(methyl)carbamoyl]phenyl]methyl]-10-hydroxy-6-methyl-8-oxo-N-[4-(trifluoromethyl)-2-[6-(trifluoromethyl)pyrimidin-4-yl]phenyl]-6,7-diazaspiro[4.5]dec-9-ene-9-carboxamide]: 33%; `C[C@]12CCCN1N(Cc1cccc(F)c1F)C(=O)C(C(=O)Nc1ccc(C(F)(F)F)cc1-c1cc(Cl)cnc1Cl)=C2O` [Example 84]: 91%.
Regarding `COc1cccc(-c2cc(C(F)(F)F)ccc2NC(=O)C2=C(O)[C@@]3(C)CCCN3N(Cc3ccc(C#CCOCCOCCOCCO)c(F)c3F)C2=O)c1OC` [Example 136], the “Rate of uptake inhibition (%) (1 µM)” value is reported as 80%.
Consider `COC(C)(C)CN(C)CCOc1ccc(CN2C(=O)C(C(=O)Nc3ccc(C(F)(F)F)cc3-c3cc(C(F)(F)F)ncn3)=C(O)C3(CCC3)N2C)c(F)c1F` [Example 350], for which the “Rate of uptake inhibition (%) (1 µM)” value came to 45%.
The same measure for `C[C@]12CCCN1N(Cc1ccc(C#CCN3CCCC3=O)c(F)c1F)C(=O)C(C(=O)Nc1ccc(Br)c(F)c1)=C2O` [Example 131]: 87%; for `CCC1(CC)C(O)=C(C(=O)Nc2ccc(Cl)cc2-c2cc(C(F)(F)F)ncn2)C(=O)N(Cc2ccc(OCCN3CCOCC3)c(F)c2F)N1C` [Example 292]: 44%; for `CC(C)[C@@H]1C(O)=C(C(=O)Nc2ccc(Cl)cc2-c2ccc(C(F)(F)F)nc2)C(=O)N(Cc2cccc(F)c2F)N1C` [Example 251]: 43%.
Next, `CN1N(Cc2cccc(F)c2F)C(=O)C(C(=O)Nc2ccc(C(F)(F)F)cc2-c2ccc(S(=O)(=O)N(C)C)cc2)=C(O)C1(C)C` [Example 308]: 63%; “(4aR)-1-[(3-Fluorophenyl)methyl]-4-hydroxy-N-[5-methyl-2-(trifluoromethyl)furan-3-yl]-2-oxo-4a-propyl-6,7-dihydro-5H-pyrrolo[1,2-b]pyridazine-3-carboxamide [Example 11]”: 22%.
Take `CN1N(Cc2ccc(OCCCCOCCO)c(F)c2F)C(=O)C(C(=O)Nc2ccc(C(F)(F)F)cc2-c2cc(C(F)(F)F)ncn2)=C(O)C12CCCC2` [Example 396]: the “Rate of uptake inhibition (%) (1 µM)” value came to 38%.
For the compound `CC(C)[C@H]1C(O)=C(C(=O)Nc2cc(F)c(Br)c(F)c2)C(=O)N(Cc2cccc(F)c2F)N1C` [Example 254], the “Rate of uptake inhibition (%) (1 µM)” value is on record as 58%.
The same measure for `Cc1cc(NC(=O)C2=C(O)[C@H]3CCCCN3N(Cc3cccc(F)c3)C2=O)c(C(F)(F)F)o1` [Example 15, (4aR)-1-[(3-Fluorophenyl)methyl]-4-hydroxy-N-[5-methyl-2-(trifluoromethyl)furan-3-yl]-2-oxo-5,6,7,8-tetrahydro-4aH-pyrido[1,2-b]pyridazine-3-carboxamide]: 42%; for `Cc1c(-c2cc(C(F)(F)F)ccc2NC(=O)C2=C(O)[C@H](C(C)(C)C)N(C)N(Cc3ccc(OCCN4CCOCC4)c(F)c3F)C2=O)ncnc1C(F)(F)F` [Example 278]: 69%.
For `COc1cccc(-c2cc(C(F)(F)F)ccc2NC(=O)C2=C(O)[C@@]3(C)CCCN3N(Cc3ccc(C#CCOCCOCCO)c(F)c3F)C2=O)c1OC` [Example 139], the “Rate of uptake inhibition (%) (1 µM)” value was found to be 88%.
